# Assay results published in patent publication US20110239327A1, “Nematicidal Effects of Cysteine Proteinases and Methods of Use Thereof to Treat Nematode Infestation” (priority 2007, published 2011).
# Entries after “also recorded” stand apart in the source; their conditions may differ.
# Experiments:
# [1] = system: M. incognita J2; experiment: In vitro live/dead count of M. incognita J2 in solution without soil (Example 2); format: cell-based
# Experimental: Eggs of M. incognita race 1 from North Carolina State University, USA were collected from tomato-infected roots grown in a glasshouse at 23° C. in a 16:8 h light-dark regime. Eggs were extracted using 1% hypochlorite (NaClO) solution (Hussey and Barker, 1973) or by picking egg masses from tomato-infected roots. Juveniles (J2) were hatched from the eggs and egg masses in water. Heterodera glycines eggs were obtained from soil samples stored in Rothamsted-Research. Second stage juveniles (J2) were hatched from the eggs in water after 10 days. Pratylenchus penetrans were a gift from Dr. Deeren Anne-Marie from the Institute for Agricultural and Fisheries Research, Merelbeke, Belgium. The beneficial nematodes Steinernema feltiae and Heterorhabditis megidis were a gift from Dr. Paul Williams from Becker Underwood. […]
# Control wells were set up which contained J2s and distilled water with 16 mM L-cysteine. […] The actual number of active J2s per well was counted with the aid of an Olympus inverted microscope, prior to the addition of the enzymes, and then the J2s were incubated in the dark at room temperature for 2 hs, 16 hs, 24 hs or 40 hr. The number of live and dead J2s per well was counted after each enzyme incubation. […]
# [2] = system: M. incognita J2; experiment: In planta bioassay, two soil applications: nematode infection of tomato roots; format: in vivo, M. incognita on tomato plants
# Experimental: Oxamyl is supplied as 10% liquid Vydate. 125 μl of a solution 1000 fold dilution of 10% formulation (kindly supplied by DK from NIU) was applied to 5 g of the soil mixture with 16% organic matter, to give a partial nematicidal effect. Soil mixtures were wetted with PBS pH 7.2, 16 hrs prior nematode application of 1000 or 2000 M. incognita J2. Infected soil mixtures were treated with water (control) or 250 μM of active papain in 16 mM of L-cysteine or a combination of Vydate and 250 μM of active papain in 16 mM of L-cysteine. After 48 hs tomato seedlings one month old were added to the treated soils. After 11 days the roots were washed free of soil and chopped to approximately 2 mm pieces. The root pieces of each tomato plant was placed in muslin bags and stained with acid-fuchsin. The stained roots were examined under microscope and all the nematodes present in the roots were counted. […] After 48 hours tomato seedlings one month old were added to the treated soils and after 11 days post infection nematode development inside root tissues was assessed as described above.
# The avermectins are macrocyclic lactones produced by the actinomycete Streptomyces avermitilis. […] After 48 hs tomato seedlings one month old were added to the treated soils and after 11 days post infection nematode development inside root tissues was assessed as described above. […]
# [3] = system: Steinernema feltiae; experiment: In vitro effect on the beneficial nematode Steinernema feltiae; format: cell-based
# Experimental: (§1) Eggs of M. incognita race 1 from North Carolina State University, USA were collected from tomato-infected roots grown in a glasshouse at 23° C. in a 16:8 h light-dark regime. Eggs were extracted using 1% hypochlorite (NaClO) solution (Hussey and Barker, 1973) or by picking egg masses from tomato-infected roots. Juveniles (J2) were hatched from the eggs and egg masses in water. Heterodera glycines eggs were obtained from soil samples stored in Rothamsted-Research. Second stage juveniles (J2) were hatched from the eggs in water after 10 days. Pratylenchus penetrans were a gift from Dr. Deeren Anne-Marie from the Institute for Agricultural and Fisheries Research, Merelbeke, Belgium. The beneficial nematodes Steinernema feltiae and Heterorhabditis megidis were a gift from Dr. Paul Williams from Becker Underwood.
# Control wells were set up which contained J2s and distilled water with 16 mM L-cysteine. Each enzyme concentration and the controls were set up in duplicate (i.e. n=2). The actual number of active J2s per well was counted with the aid of an Olympus inverted microscope, prior to the addition of the enzymes, and then the J2s were incubated in the dark at room temperature for 2 hs, 16 hs, 24 hs or 40 hr. The number of live and dead J2s per well was counted after each enzyme incubation. […]
# [4] = system: Heterorhabditis megidis; experiment: In vitro effect on the beneficial nematode Heterorhabditis megidis; format: cell-based
# Experimental: as §1
# (§2) Control wells were set up which contained J2s and distilled water with 16 mM L-cysteine. Each enzyme concentration and the controls were set up in duplicate (i.e. n=2). The actual number of active J2s per well was counted with the aid of an Olympus inverted microscope, prior to the addition of the enzymes, and then the J2s were incubated in the dark at room temperature for 2 hs, 16 hs, 24 hs or 40 hr. The number of live and dead J2s per well was counted after each enzyme incubation. The same procedure was followed when setting up further experiments to compare the effects of these enzymes with Heterodera glycines J2, Pratylenchus penetrans, Steinernema feltiae and Heterorhabditis megidis.
# The beneficial nematodes Hetorhabditis megidis and Steinernema feltiae were incubated with dilutions of actinidin, bromelain and pappain from papaya latex (see concentrations used in table 3). These nematodes reacted differentially to these cysteine proteinases (Tables 4 and 5). […] S. feltiae were dead at all concentrations of actinidin tested. […] After 16 hs of observation the enzyme solutions were diluted with water (to half of the initial concentrations) however, no change in nematode movement was observed after 24 hs.
# [5] = system: Pratylenchus penetrans; experiment: In vitro live/dead count of Pratylenchus penetrans; format: cell-based
# Experimental: as §1
# as §2, with “The actual number of active J2s per well was counted with the aid of an Olympus inverted microscope, prior to the addition of the enzymes, and then the J2s were incubated in the dark at room temperature for 2 hs, 16 hs, 24 hs or 40 hr.” left out
# [6] = system: Meloidogyne spp. J2s; experiment: In vitro mobility of Meloidogyne spp. J2s exposed to plant cysteine proteinases; format: cell-based, M. incognita or M. javanica
# Experimental: Eggs of M. incognita race 1 from North Carolina State University, USA, and M. javanica from Portugal were collected from the roots of infected tomato plants grown in a glasshouse at 23° C. in a 16:8 h light-dark regime. Eggs were extracted using 1% hypochlorite (NaClO) solution (Hussey and Barker, 1973) or by picking egg masses from the infected roots. M. incognita and M. javanica were both used in the experiments and produced similar results. Juveniles (J2) were hatched from the eggs and egg masses in water. Globodera rostochiensis cysts were washed extensively in distilled water. Hatched J2s were obtained by incubating cysts in distilled water for 4 days followed by exposure to potato root diffusate (PRD).
# Approximately 1000 J2s (second juvenile stage) of M. incognita or M. javanica were incubated per well of a 48-well plate with the following active enzyme concentrations (determined by E-64 titration) of papain dissolved in distilled water containing 16 mM L-cysteine (to activate the cysteine proteinase): 1.5 μM, 3 μM, 6.25 μM, 12.5 μM, 25 μM, 50 μM, 75 μM and 100 μM. […] The number of active J2s per well was counted prior to the addition of papain, and then the J2s were incubated in the dark at room temperature for 3 h. The number of mobile J2s per well was counted after 60, 120 and 180 mins. […]
# [7] = system: larvae in infected soil; conditions: cited from earlier work
# [8] = system: M. incognita J2; experiment: In vitro assay of M. incognita J2 present in soil mixtures; format: cell-based; conditions: Triton x-100 (1%), Milk (5%)
# Experimental: The same procedure described above was used to determine the effect of the cysteine proteinases against M. incognita J2 present in soil mixtures. The following soil mixtures were used: fine and coarse sand, peat and fine/coarse sand and loam mix and fine/coarse sand. These soil mixtures were prepared at concentrations of 1:1, 1:3 and 1:6 and autoclaved at […] for 20 min. Peat and loam-mix were obtained from Rothamsted-Research. Soil mixtures were added to 24 well plates (0.5 g) and wetted for 16 hs with either PBS ph 7.2, Tx-100, Milk 5% or cysteine proteinases, in order to wet the soil and block non-specific binding sites present in the soil particles. Then, approximately 100 J2 were added to the wells, followed by cysteine proteinases with 16 mM of L-cysteine to activate the cysteine proteinases or water as control. After 16 hs at room temperature in the dark, individual wells of the 24 well plates were flushed with 1 ml of distilled water to recover the nematodes from the soil mixtures. These were placed in a 24 well plate and the number of dead/live nematodes scored under microscopic observation.
# These in vitro experiments were performed in 24 well plates using sterile soil mixtures to diminish the possibility of biological degradation of the enzyme by microorganisms. […] The number of live nematodes was counted before and after enzyme treatment. […]
compound,measurement,setting,value
stem bromelain,recovery of movement,"[1]; after 40 hs of observation, at the nematicidal concentration",not able to recover movement
same,concentration of active bromelain with nematicidal effect,[1]; in solution without soil,1 mM
same,reduction of nematode infection of plants,"[2]; two soil applications of enzyme (250 μM papain, 2.2 μM bromelain, 3.3 mM actinidin as printed), soil 16% organic matter, 11 days",95%
same,bromelain concentrations at which no effect was observed,[3],below 280 uM
same,effect on S. feltiae movement,[3]; high concentrations of bromelain,affected S. feltiae movement slightly
same,nematode motility or behaviour,"[4]; enzyme concentration A (Table 3): actinidin 3.3 mM, bromelain 2.2 mM, papain 250 uM",All paralysed
same,nematode motility or behaviour,"[4]; enzyme concentration B: actinidin 1.7 mM, bromelain 1.1 mM, papain 125 uM",All paralysed
same,nematode motility or behaviour,"[4]; enzyme concentration C: actinidin 840 uM, bromelain 560 uM, papain 62.5 uM",All paralysed
same,effect on H. megidis,[4]; higher concentrations,paralysed
same,effect on H. megidis,[4]; lower concentrations,only affected slightly
same,concentration of bromelain that killed the nematodes,[5],560 µM
same,recovery of mobility,[5]; after 48 hs,no recovery of mobility
same,proportion of active Meloidogyne spp. J2s relative to control,[6]; 25 μM active enzyme,significant reduction; also recorded: Reductions in the proportion of active worms were evident
Abamectin,larvae development allowed,[7]; 300 μl of abamectin solution (100 mg/l) to 50 g of infected soil,0%
same,larvae allowed to develop,[7]; 2000 (so in the source) of abamectin solution (100 mg/l) to 50 g of infected soil,75%
same,nematicidal effect (reduction of nematode infection),"[2]; nematicide alone, no enzyme",94%
"CC(C)C[C@H](NC(=O)[C@H]1O[C@@H]1C(=O)O)C(=O)NCCCCN=C(N)N (relative stereo) [E-64, L-trans-epoxysuccinyl-leucylamido(4-guanidino)butane, reference compound]",proportion of active worms on addition of E-64,"[6]; 1 mM E-64, J2s incubated without enzyme",No change in the proportion of active worms
Triton x-100,effect of blocking agents on nematode mobility,[8],slightly affected nematode mobility
